In ChEMBL document CHEMBL4321812, “Structure-based rational design of staurosporine-based fluorescent probe with broad-ranging kinase affinity for kinase panel application” (Bioorg Med Chem Lett, 2019) one finds Kd data, which are given here for two molecules.

Experiment [1] concerns the target Ribosomal protein S6 kinase alpha-1 (Homo sapiens, UniProt Q15418). The experiment can be described thus: Binding affinity to recombinant full length human N-terminal GST-tagged RPS6KA1 expressed in baculovirus expression system using S6K peptide as substrate incubated for 1 hr by TR-FRET assay. (In general: Time-resolved FRET reads energy transfer from a long-lived donor to a nearby acceptor.)

Experiment [2] has as its target Serine/threonine-protein kinase TNNI3K (Homo sapiens, UniProt Q59H18). The experiment can be described thus: Binding affinity to recombinant N-terminal His-FLAG-GST-tagged TNNI3K (unknown origin) (1 to 727 residues) expressed in baculovirus infected Sf9 insect cells incubated for 1 hr by TR-FRET assay.
For experiment [3], the target named is 5'-AMP-activated protein kinase catalytic subunit alpha-2 (Homo sapiens, UniProt P54646). As to the kind of experiment: Binding affinity to recombinant full-length N-terminal His-FLAG-GST-tagged PRKAA2 (unknown origin) (10 to 552 residues) expressed in baculovirus infected Sf9 insect cells incubated for 1 hr by TR-FRET assay.
Experiment [4] deals with Serine/threonine-protein kinase SIK1 (Homo sapiens, UniProt P57059). The experiment can be described thus: Binding affinity to recombinant full-length N-terminal His-FLAG-tagged SIK1 (unknown origin) expressed in baculovirus infected Sf9 insect cells incubated for 1 hr by TR-FRET assay.
Experiment [5] deals with Mitogen-activated protein kinase kinase kinase 9 (Homo sapiens, UniProt P80192). The experiment can be described thus: Binding affinity to recombinant N-terminal His-FLAG-GST-tagged MAP3K9 (unknown origin) (110 to 422 residues) expressed in baculovirus infected Sf9 insect cells incubated for 1 hr by TR-FRET assay.
In experiment [6] the target is Serine/threonine-protein kinase 32C (Homo sapiens, UniProt Q86UX6). The experiment can be described thus: Binding affinity to recombinant full-length N-terminal His-FLAG-GST-tagged STK32C (unknown origin) (66 to 486 residues) expressed in baculovirus infected Sf9 insect cells incubated for 1 hr by TR-FRET assay.
Experiment [7] deals with Serine/threonine-protein kinase 25 (Homo sapiens, UniProt O00506). As to the kind of experiment: Binding affinity to recombinant full-length N-terminal His-FLAG-GST-tagged STK25 (unknown origin) expressed in baculovirus infected Sf9 insect cells incubated for 1 hr by TR-FRET assay.
Experiment [8] concerns the target Inhibitor of nuclear factor kappa-B kinase subunit epsilon (Homo sapiens, UniProt Q14164). As to the kind of experiment: Binding affinity to recombinant full-length N-terminal His-FLAG-GST-tagged IKBKE (unknown origin) expressed in baculovirus infected Sf9 insect cells incubated for 1 hr by TR-FRET assay.
The target of experiment [9] is Interleukin-1 receptor-associated kinase 4 (Homo sapiens, UniProt Q9NWZ3). The experiment can be described thus: Binding affinity to recombinant full-length human N-terminal his-tagged IRAK4 expressed in baculovirus expression system using IRAK1 peptide as substrate incubated for 1 hr by TR-FRET assay.
Experiment [10] concerns the target Serine/threonine-protein kinase 3 (Homo sapiens, UniProt Q13188). The experiment can be described thus: Binding affinity to recombinant full-length N-terminal His-FLAG-GST-tagged STK3 (unknown origin) expressed in baculovirus infected Sf9 insect cells incubated for 1 hr by TR-FRET assay.
For experiment [11], the target named is Tyrosine-protein kinase Tec (Homo sapiens, UniProt P42680). As to the kind of experiment: Binding affinity to recombinant human N-terminal GST-tagged TEC (359 to 631 residues) expressed in baculovirus expression system using Srctide as substrate incubated for 1 hr by TR-FRET assay.
Experiment [12] deals with Serine/threonine-protein kinase 32A (Homo sapiens, UniProt Q8WU08). The experiment can be described thus: Binding affinity to recombinant full-length N-terminal His-FLAG-tagged STK32A (unknown origin) expressed in baculovirus infected Sf9 insect cells incubated for 1 hr by TR-FRET assay.
The next experiment has as its target Activated CDC42 kinase 1 (Homo sapiens, UniProt Q07912). As to the kind of experiment: Binding affinity to recombinant N-terminal His-FLAG-GST-tagged TNK2 (unknown origin) (110 to 476 residues) expressed in baculovirus infected Sf9 insect cells incubated for 1 hr by TR-FRET assay.
Experiment [13] addresses Ribosomal protein S6 kinase alpha-3 (Homo sapiens, UniProt P51812). As to the kind of experiment: Binding affinity to recombinant human full length N-terminal GST-tagged RPS6KA3 expressed in baculovirus expression system using S6K peptide as substrate incubated for 1 hr by TR-FRET assay.
The target in experiment [14] is Calcium/calmodulin-dependent protein kinase type II subunit beta (Homo sapiens, UniProt Q13554). As to the kind of experiment: Binding affinity to recombinant human full length N-terminal GST-tagged CAMK2B expressed in baculovirus expression system using GS peptide as substrate incubated for 1 hr in presence of calmodulin by TR-FRET assay.
Experiment [15] concerns the target Fibroblast growth factor receptor 3 (Homo sapiens, UniProt P22607). The experiment can be described thus: Binding affinity to recombinant N-terminal His-FLAG-GST-tagged FGFR3 (unknown origin) (436 to 806 residues) expressed in baculovirus infected Sf9 insect cells incubated for 1 hr by TR-FRET assay.
The target in experiment [16] is Tyrosine-protein kinase Lyn (Homo sapiens, UniProt P07948). As to the kind of experiment: Binding affinity to recombinant full-length N-terminal His-FLAG-GST-tagged LYN (unknown origin) expressed in baculovirus infected Sf9 insect cells incubated for 1 hr by TR-FRET assay.
Another experiment has as its target Ephrin type-A receptor 1 (Homo sapiens, UniProt P21709). The experiment can be described thus: Binding affinity to recombinant full-length N-terminal His-FLAG-GST-tagged EPHA1 (unknown origin) (586 to 976 residues) expressed in baculovirus infected Sf9 insect cells incubated for 1 hr by TR-FRET assay.
The target of experiment [17] is Serine/threonine-protein kinase TAO1 (Homo sapiens, UniProt Q7L7X3). The experiment can be described thus: Binding affinity to recombinant full-length N-terminal His-FLAG-GST-tagged TAOK1 (unknown origin) (1 to 314 residues) expressed in baculovirus infected Sf9 insect cells incubated for 1 hr by TR-FRET assay.
Experiment [18] deals with Macrophage colony-stimulating factor 1 receptor (Homo sapiens, UniProt P07333). As to the kind of experiment: Binding affinity to recombinant N-terminal His-FLAG-GST-tagged CSF1R (unknown origin) (538 to 972 residues) expressed in baculovirus infected Sf9 insect cells incubated for 1 hr by TR-FRET assay.
Experiment [19] deals with Serine/threonine-protein kinase 38-like (Homo sapiens, UniProt Q9Y2H1). The experiment can be described thus: Binding affinity to recombinant full-length N-terminal His-FLAG-GST-tagged STK38L (unknown origin) expressed in baculovirus infected Sf9 insect cells incubated for 1 hr by TR-FRET assay.
For experiment [20], the target named is Protein kinase C alpha type (Homo sapiens, UniProt P17252). As to the kind of experiment: Binding affinity to recombinant full-length N-terminal His-FLAG-GST-tagged PRKCA (unknown origin) expressed in baculovirus infected Sf9 insect cells incubated for 1 hr by TR-FRET assay.
Experiment [21] concerns the target Dual specificity mitogen-activated protein kinase kinase 1 (Homo sapiens, UniProt Q02750). As to the kind of experiment: Binding affinity to recombinant full-length N-terminal His-FLAG-tagged MAP2K1 (unknown origin) expressed in baculovirus infected Sf9 insect cells incubated for 1 hr by TR-FRET assay.
Experiment [22] concerns the target Ribosomal protein S6 kinase alpha-2 (Homo sapiens, UniProt Q15349). The experiment can be described thus: Binding affinity to recombinant human full length N-terminal GST-tagged RPS6KA2 expressed in baculovirus expression system using S6K peptide as substrate incubated for 1 hr by TR-FRET assay.

Chain of Dual specificity mitogen-activated protein kinase kinase 1 (Q02750 whole entry): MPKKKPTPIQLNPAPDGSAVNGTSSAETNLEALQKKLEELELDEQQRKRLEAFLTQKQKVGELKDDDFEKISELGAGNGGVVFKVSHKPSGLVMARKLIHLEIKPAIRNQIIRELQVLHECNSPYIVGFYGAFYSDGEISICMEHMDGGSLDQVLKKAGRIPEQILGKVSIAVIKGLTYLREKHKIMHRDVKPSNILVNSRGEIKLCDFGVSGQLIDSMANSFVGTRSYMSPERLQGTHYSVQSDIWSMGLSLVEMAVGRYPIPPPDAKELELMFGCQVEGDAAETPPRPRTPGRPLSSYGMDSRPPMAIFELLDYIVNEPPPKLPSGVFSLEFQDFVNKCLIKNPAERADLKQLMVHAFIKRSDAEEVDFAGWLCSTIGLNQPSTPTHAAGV
Chain of Serine/threonine-protein kinase 38-like (Q9Y2H1 whole entry): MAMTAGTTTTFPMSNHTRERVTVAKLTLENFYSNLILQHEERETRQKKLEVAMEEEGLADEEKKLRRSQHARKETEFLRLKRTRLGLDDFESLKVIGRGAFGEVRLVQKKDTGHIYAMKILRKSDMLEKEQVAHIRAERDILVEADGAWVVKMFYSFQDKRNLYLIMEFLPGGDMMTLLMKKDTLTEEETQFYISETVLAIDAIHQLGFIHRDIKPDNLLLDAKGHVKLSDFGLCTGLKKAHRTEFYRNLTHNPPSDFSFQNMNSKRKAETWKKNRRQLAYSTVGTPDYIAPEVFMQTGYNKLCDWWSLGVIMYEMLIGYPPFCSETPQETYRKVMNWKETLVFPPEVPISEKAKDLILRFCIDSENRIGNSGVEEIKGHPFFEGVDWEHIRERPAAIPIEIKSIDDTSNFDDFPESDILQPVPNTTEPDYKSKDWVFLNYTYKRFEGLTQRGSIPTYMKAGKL
Chain of Tyrosine-protein kinase Lyn (P07948 whole entry, the tested form may be a part): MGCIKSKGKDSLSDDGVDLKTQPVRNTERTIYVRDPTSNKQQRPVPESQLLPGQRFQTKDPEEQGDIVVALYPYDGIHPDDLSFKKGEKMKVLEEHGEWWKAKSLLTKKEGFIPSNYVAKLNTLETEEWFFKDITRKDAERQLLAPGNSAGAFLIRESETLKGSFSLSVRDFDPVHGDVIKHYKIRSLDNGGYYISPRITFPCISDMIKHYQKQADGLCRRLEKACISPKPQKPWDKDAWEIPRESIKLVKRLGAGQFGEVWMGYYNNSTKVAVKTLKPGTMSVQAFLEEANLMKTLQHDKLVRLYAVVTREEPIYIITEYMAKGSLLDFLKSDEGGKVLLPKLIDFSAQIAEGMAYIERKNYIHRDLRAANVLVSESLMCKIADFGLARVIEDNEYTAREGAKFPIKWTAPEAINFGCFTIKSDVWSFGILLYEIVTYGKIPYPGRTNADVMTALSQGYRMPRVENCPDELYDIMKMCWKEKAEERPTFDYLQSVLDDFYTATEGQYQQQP
Chain of Serine/threonine-protein kinase TNNI3K (Q59H18 whole entry, the tested form may be a part): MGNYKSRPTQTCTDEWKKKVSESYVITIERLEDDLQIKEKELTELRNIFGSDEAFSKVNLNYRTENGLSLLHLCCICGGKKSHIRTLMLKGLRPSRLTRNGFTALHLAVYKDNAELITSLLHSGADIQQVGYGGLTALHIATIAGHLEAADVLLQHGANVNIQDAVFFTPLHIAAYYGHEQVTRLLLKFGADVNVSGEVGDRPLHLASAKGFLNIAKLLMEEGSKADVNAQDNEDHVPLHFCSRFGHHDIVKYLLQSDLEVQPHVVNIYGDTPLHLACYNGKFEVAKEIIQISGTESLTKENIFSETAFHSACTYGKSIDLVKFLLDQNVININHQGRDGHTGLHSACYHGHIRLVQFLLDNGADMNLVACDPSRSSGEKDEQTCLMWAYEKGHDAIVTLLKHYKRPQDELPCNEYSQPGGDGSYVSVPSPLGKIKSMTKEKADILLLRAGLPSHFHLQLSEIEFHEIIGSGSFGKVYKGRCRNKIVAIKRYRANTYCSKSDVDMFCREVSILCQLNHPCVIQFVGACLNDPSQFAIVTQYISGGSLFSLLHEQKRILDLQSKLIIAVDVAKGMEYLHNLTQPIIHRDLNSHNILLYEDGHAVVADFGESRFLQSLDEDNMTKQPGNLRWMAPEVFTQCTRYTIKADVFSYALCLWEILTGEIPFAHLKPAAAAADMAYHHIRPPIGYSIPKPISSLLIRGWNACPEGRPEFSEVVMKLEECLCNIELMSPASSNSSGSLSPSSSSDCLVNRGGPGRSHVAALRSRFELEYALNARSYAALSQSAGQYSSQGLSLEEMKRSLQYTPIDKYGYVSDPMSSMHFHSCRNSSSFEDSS
Chain of Serine/threonine-protein kinase 25 (O00506 whole entry): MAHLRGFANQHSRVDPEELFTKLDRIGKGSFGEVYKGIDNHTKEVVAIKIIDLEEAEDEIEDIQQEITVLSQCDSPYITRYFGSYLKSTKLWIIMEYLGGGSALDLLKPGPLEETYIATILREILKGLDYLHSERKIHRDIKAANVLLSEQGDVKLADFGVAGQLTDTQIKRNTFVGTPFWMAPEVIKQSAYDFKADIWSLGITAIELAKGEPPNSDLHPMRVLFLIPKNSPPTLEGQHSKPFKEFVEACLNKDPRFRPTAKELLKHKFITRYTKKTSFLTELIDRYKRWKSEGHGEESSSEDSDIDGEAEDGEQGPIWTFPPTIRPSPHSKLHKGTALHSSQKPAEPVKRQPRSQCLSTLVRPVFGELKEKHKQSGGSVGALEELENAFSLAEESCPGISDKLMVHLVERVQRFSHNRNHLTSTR
Chain of Macrophage colony-stimulating factor 1 receptor (P07333 whole entry, the tested form may be a part): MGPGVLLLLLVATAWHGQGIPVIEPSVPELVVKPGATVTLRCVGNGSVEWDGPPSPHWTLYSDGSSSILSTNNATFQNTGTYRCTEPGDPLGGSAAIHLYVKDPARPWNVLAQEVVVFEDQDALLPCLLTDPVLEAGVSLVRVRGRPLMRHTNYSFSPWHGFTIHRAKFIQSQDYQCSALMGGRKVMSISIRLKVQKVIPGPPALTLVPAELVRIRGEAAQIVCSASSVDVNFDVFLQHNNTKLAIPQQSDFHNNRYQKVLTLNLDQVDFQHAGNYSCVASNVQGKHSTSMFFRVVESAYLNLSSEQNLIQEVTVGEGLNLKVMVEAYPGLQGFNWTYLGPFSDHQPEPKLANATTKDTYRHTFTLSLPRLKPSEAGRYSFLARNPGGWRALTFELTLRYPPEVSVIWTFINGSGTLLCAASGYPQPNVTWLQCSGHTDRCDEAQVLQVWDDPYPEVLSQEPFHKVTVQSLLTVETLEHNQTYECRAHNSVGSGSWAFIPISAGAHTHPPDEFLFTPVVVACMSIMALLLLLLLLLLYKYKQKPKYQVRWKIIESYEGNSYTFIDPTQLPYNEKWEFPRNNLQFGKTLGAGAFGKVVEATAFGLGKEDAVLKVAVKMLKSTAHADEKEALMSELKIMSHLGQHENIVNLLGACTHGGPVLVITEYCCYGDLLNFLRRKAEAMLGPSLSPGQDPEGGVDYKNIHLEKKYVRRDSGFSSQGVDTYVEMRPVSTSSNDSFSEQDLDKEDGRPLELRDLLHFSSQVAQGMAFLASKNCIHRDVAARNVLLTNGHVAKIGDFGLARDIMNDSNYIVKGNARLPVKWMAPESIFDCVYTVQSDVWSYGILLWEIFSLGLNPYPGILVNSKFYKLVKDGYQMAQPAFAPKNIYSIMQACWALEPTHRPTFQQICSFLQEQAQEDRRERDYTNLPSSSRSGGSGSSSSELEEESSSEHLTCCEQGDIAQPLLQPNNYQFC
Chain of Interleukin-1 receptor-associated kinase 4 (Q9NWZ3 whole entry): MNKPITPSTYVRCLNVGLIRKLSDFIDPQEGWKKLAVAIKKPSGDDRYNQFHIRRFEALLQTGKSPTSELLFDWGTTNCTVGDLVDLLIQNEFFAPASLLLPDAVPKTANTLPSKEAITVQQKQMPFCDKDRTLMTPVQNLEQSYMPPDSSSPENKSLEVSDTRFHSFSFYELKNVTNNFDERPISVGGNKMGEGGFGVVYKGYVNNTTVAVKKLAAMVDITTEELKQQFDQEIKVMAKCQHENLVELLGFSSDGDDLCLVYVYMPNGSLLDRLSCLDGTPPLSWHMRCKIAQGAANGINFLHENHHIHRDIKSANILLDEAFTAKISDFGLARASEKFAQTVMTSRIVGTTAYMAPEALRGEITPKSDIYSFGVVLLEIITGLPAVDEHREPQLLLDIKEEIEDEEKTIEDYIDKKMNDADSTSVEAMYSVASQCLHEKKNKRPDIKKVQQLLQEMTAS
Chain of Serine/threonine-protein kinase 3 (Q13188 whole entry, the tested form may be a part): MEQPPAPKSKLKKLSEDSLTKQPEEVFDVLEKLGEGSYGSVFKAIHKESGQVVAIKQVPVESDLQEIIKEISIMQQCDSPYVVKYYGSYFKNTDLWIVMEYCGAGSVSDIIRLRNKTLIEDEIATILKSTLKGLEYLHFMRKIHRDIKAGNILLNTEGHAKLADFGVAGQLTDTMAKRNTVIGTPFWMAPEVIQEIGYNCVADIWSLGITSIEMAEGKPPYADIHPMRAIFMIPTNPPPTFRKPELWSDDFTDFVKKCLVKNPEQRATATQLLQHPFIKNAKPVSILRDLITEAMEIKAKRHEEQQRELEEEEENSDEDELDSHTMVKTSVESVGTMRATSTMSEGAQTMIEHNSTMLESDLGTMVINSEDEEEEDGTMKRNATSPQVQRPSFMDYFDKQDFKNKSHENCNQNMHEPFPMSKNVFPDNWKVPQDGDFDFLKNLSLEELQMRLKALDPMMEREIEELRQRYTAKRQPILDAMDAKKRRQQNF
Chain of Serine/threonine-protein kinase 32A (Q8WU08 whole entry, the tested form may be a part): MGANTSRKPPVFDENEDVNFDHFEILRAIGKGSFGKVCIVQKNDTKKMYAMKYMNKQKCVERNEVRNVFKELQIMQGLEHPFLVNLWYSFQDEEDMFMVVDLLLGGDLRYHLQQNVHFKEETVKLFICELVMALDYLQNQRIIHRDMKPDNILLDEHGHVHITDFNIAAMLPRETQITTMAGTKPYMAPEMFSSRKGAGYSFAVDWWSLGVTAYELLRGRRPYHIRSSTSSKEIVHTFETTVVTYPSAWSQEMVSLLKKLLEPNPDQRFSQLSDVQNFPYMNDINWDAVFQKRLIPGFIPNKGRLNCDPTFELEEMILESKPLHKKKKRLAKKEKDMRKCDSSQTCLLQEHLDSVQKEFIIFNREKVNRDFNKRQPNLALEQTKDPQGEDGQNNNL

Broadly, the Kd is the free concentration of one partner at which half of the binding sites on the other are occupied at equilibrium, for simple one-to-one binding. In the case of `CO[C@@H]1[C@H](NCCOCCOCCOCCNC(=O)CCC2=[N+]3C(=Cc4c(C)cc(C)n4[B-]3(F)F)C=C2)C[C@H]2O[C@]1(C)n1c3ccccc3c3c4c(c5c6ccccc6n2c5c31)C(=O)NC4`, the Kd in [1] came to 16 nM; in experiment [2], 844 nM; in [3], 45 nM; in experiment [4] it was 3 nM; in experiment [5] it was 2 nM; in experiment [6] it was 448 nM. The Kd was 444 nM in experiment [7]; 58 nM in [8]; 23 nM in experiment [9]; 6 nM in experiment [10]; 1060 nM in experiment [11]; 1540 nM in experiment [12]. Also, the Kd at Activated CDC42 kinase 1 amounted to 36 nM; in experiment [13], 4 nM; in experiment [14], 19 nM; in experiment [15], 409 nM; in experiment [16], 63 nM; at Ephrin type-A receptor 1, 586 nM. The Kd came to 25 nM in experiment [17]; 279 nM in experiment [18]; 759 nM in experiment [19]; 92 nM in experiment [20]; 328 nM in experiment [21]; 8 nM in experiment [22].
For `CO[C@@H]1[C@H](N(C)CCOCCOCCOCCNC(=O)CCC2=[N+]3C(=Cc4c(C)cc(C)n4[B-]3(F)F)C=C2)C[C@H]2O[C@]1(C)n1c3ccccc3c3c4c(c5c6ccccc6n2c5c31)C(=O)NC4`, the Kd came to 36 nM in experiment [1]; 1200 nM in [2]; 46 nM in experiment [3]; 3 nM in experiment [4]; 3 nM in experiment [5]; 326 nM in experiment [6]. The Kd was 443 nM in experiment [7]; 44 nM in experiment [8]; 75 nM in [9]; 3 nM in experiment [10]; 1460 nM in experiment [11]; 1750 nM in experiment [12]. In addition, the Kd came out at 42 nM on Activated CDC42 kinase 1; 2 nM in [13]; 12 nM in experiment [14]; 848 nM in [15]; 116 nM in experiment [16]; 588 nM at Ephrin type-A receptor 1. For the same molecule, the equilibrium dissociation constant (Kd) is 15 nM in [17]; 324 nM in experiment [18]; greater than 2000 nM in experiment [19]; 43 nM in experiment [20]; 428 nM in experiment [21]; 4 nM in experiment [22].
